Assay results as given in ChEMBL document CHEMBL3745680, “Meroterpenoids from a Tropical Dysidea sp. Sponge” (J Nat Prod, 2015).
Values after ≈ are worked out from the molar mass of the structure shown.

Tests used:
K562 = assay: Cytotoxicity against human K562 cells assessed as reduction in cell viability after 72 hrs by MTT assay; type: functional, cell-based; conditions: K562, 72 h
A549 = assay: Cytotoxicity against human A549 cells assessed as reduction in cell viability after 72 hrs by MTT assay; type: functional, cell-based; conditions: A549, 72 h
Staphylococcus aureus = assay: Antibacterial activity against Staphylococcus aureus ATCC 6538p after 24 hrs at 37 degC by broth dilution method; type: functional
Bacillus subtilis = assay: Antibacterial activity against Bacillus subtilis ATCC 6633 after 24 hrs at 37 degC by broth dilution method; type: functional; conditions: ATCC 6633, 24 h
Kocuria rhizophila = assay: Antibacterial activity against Kocuria rhizophila NBRC 12708 after 24 hrs at 37 degC by broth dilution method; type: functional; conditions: NBRC 12708, 24 h
Salmonella enterica = assay: Antibacterial activity against Salmonella enterica ATCC 14028 after 24 hrs at 37 degC by broth dilution method; type: functional; conditions: ATCC 14028, 24 h
Proteus hauseri = assay: Antibacterial activity against Proteus hauseri NBRC 3851 after 24 hrs at 37 degC by broth dilution method; type: functional; conditions: NBRC 3851, 24 h
Escherichia coli = assay: Antibacterial activity against Escherichia coli ATCC 35270 after 24 hrs at 37 degC by broth dilution method; type: functional; conditions: ATCC 35270, 24 h
Candida albicans = assay: Antifungal activity against Candida albicans ATCC 10231 after 48 to 72 hrs at 28 degC by serial 2-fold dilution method; type: functional
Trichophyton rubrum = assay: Antifungal activity against Trichophyton rubrum IFO 9185 after 48 to 72 hrs at 28 degC by serial 2-fold dilution method; type: functional
[1] = tested on: Trichophyton mentagrophytes; assay: Antifungal activity against Trichophyton mentagrophytes IFO 40996 after 48 to 72 hrs at 28 degC by serial 2-fold dilution method; type: functional
Aspergillus fumigatus = assay: Antifungal activity against Aspergillus fumigatus HIC 6094 after 48 to 72 hrs at 28 degC by serial 2-fold dilution method; type: functional
Sortase A = target: T1, Sortase A (Staphylococcus aureus, UniProt Q9S446); assay: Inhibition of Staphylococcus aureus ATCC 6538p sortase A expressed in Escherichia coli using dabcyl-QALPETGEE-edans as substrate incubated for 1 hr by fluorescence spectrophotometry analysis
T1 sequence (Q9S446 whole entry): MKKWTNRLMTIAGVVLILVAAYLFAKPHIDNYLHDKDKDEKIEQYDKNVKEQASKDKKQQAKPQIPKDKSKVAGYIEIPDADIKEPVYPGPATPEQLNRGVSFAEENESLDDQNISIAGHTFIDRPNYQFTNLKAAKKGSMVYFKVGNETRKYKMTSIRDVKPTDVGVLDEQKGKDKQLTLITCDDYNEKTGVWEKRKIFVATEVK

[2] = target: Sodium/potassium-transporting ATPase; assay: Inhibition of Na+/K+ -ATPase in human intrauterine growth restriction placental membrane using 3-O-methylfluorescein phosphate by fluorometric method in presence of Kcl; type: tissue-based
[3] = Inhibition of Magnaporthe grisea Guy 11 isocitrate lyase using isocitrate as substrate by spectrophotometric based glyoxylate cycle assay; set-up: species or system Pyricularia grisea

C=C1CCC[C@@]23C4=C(C[C@]2(C)[C@@H](C)CC[C@@]13C)C(=O)C=C(NC)C4=O
IC50 (K562): 4 µM
IC50 (A549): 4.9 µM
MIC (Staphylococcus aureus): > 128 µg/mL
MIC (Bacillus subtilis): > 128 µg/mL
MIC (Kocuria rhizophila): 2 µg/mL (≈ 5.89 µM)
MIC (Salmonella enterica): > 128 µg/mL
MIC (Proteus hauseri): > 128 µg/mL
MIC (Escherichia coli): > 128 µg/mL
MIC (Candida albicans): > 128 µg/mL
MIC (Trichophyton rubrum): > 128 µg/mL
MIC [1]: 128 µg/mL (≈ 377 µM)
MIC (Aspergillus fumigatus): > 128 µg/mL
IC50 (Sortase A): > 377 µM
IC50 [2]: > 377 µM

C=C1CCC[C@H]2[C@](C)(CC3=CC(=O)C=C(N(C)CCS(=O)(=O)O)C3=O)[C@@H](C)CC[C@@]12C
IC50 (K562): 5.7 µM
IC50 (A549): 6.1 µM
MIC (Staphylococcus aureus): 128 µg/mL (≈ 285 µM)
MIC (Bacillus subtilis): 64 µg/mL (≈ 142 µM)
MIC (Kocuria rhizophila): 64 µg/mL (≈ 142 µM)
MIC (Salmonella enterica): 128 µg/mL (≈ 285 µM)
MIC (Proteus hauseri): 128 µg/mL (≈ 285 µM)
MIC (Escherichia coli): > 128 µg/mL
MIC (Candida albicans): 128 µg/mL (≈ 285 µM)
MIC (Trichophyton rubrum): > 128 µg/mL
MIC [1]: 128 µg/mL (≈ 285 µM)
MIC (Aspergillus fumigatus): > 128 µg/mL
IC50 (Sortase A): > 285 µM
IC50 [3]: 93.3 µg/mL (≈ 208 µM)
IC50 [2]: 94.5 µM

O=C(O)CC[N+](=O)[O-]
IC50 [3]: 2.5 µg/mL (≈ 21 µM)

C=C1CCC[C@@]23C4=C(C[C@]2(C)[C@@H](C)CC[C@@]13C)C(=O)C=C(NCCS(=O)(=O)O)C4=O
IC50 (K562): 1.1 µM
IC50 (A549): 2.3 µM
MIC (Staphylococcus aureus): > 128 µg/mL
MIC (Bacillus subtilis): > 128 µg/mL
MIC (Kocuria rhizophila): 128 µg/mL (≈ 295 µM)
MIC (Salmonella enterica): > 128 µg/mL
MIC (Proteus hauseri): > 128 µg/mL
MIC (Escherichia coli): > 128 µg/mL
MIC (Candida albicans): > 128 µg/mL
MIC (Trichophyton rubrum): > 128 µg/mL
MIC [1]: > 128 µg/mL
MIC (Aspergillus fumigatus): > 128 µg/mL
IC50 (Sortase A): > 295 µM
IC50 [2]: 285 µM

C=C1CCC[C@H]2[C@](C)(CC3=CC(=O)C=C(NCCS(=O)(=O)O)C3=O)[C@@H](C)CC[C@@]12C
IC50 (K562): 6.9 µM
IC50 (A549): 4.2 µM
MIC (Staphylococcus aureus): 64 µg/mL (≈ 147 µM)
MIC (Bacillus subtilis): 32 µg/mL (≈ 73.5 µM)
MIC (Kocuria rhizophila): 8 µg/mL (≈ 18.4 µM)
MIC (Salmonella enterica): 32 µg/mL (≈ 73.5 µM)
MIC (Proteus hauseri): 32 µg/mL (≈ 73.5 µM)
MIC (Escherichia coli): > 128 µg/mL
MIC (Candida albicans): 16 µg/mL (≈ 36.7 µM)
MIC (Trichophyton rubrum): > 128 µg/mL
MIC [1]: 128 µg/mL (≈ 294 µM)
MIC (Aspergillus fumigatus): > 128 µg/mL
IC50 (Sortase A): 272 µM
IC50 [3]: 43.5 µg/mL (≈ 99.9 µM)
IC50 [2]: 82.2 µM

C=C1CCC[C@@]23Oc4ccc(O)cc4C[C@]2(C)[C@@H](C)CC[C@@]13C
IC50 (K562): 4.8 µM
IC50 (A549): 5.9 µM
MIC (Staphylococcus aureus): 2 µg/mL (≈ 6.4 µM)
MIC (Bacillus subtilis): 1 µg/mL (≈ 3.2 µM)
MIC (Kocuria rhizophila): 1 µg/mL (≈ 3.2 µM)
MIC (Salmonella enterica): 1 µg/mL (≈ 3.2 µM)
MIC (Proteus hauseri): 2 µg/mL (≈ 6.4 µM)
MIC (Escherichia coli): > 128 µg/mL
MIC (Candida albicans): > 128 µg/mL
MIC (Trichophyton rubrum): > 128 µg/mL
MIC [1]: 8 µg/mL (≈ 25.6 µM)
MIC (Aspergillus fumigatus): > 128 µg/mL
IC50 (Sortase A): > 410 µM
IC50 [2]: 69.1 µM

CC1(C)S[C@@H]2[C@H](NC(=O)[C@H](N)c3ccccc3)C(=O)N2[C@H]1C(=O)O [AMPICILLIN]
MIC (Staphylococcus aureus): 0.13 µg/mL (≈ 0.372 µM)
MIC (Bacillus subtilis): < 0.06 µg/mL
MIC (Kocuria rhizophila): < 0.06 µg/mL
MIC (Salmonella enterica): 0.06 µg/mL (≈ 0.172 µM)
MIC (Proteus hauseri): < 0.06 µg/mL
MIC (Escherichia coli): 4 µg/mL (≈ 11.4 µM)

COc1ccc2cc3[n+](cc2c1OC)CCc1cc2c(cc1-3)OCO2 [BERBERINE CHLORIDE]
IC50 (Sortase A): 109 µM

C[C@@H]1[C@H](O)[C@@H](C)/C=C/C=C/C=C/C=C/C=C/C=C/C=C/[C@H](O[C@@H]2O[C@H](C)[C@@H](O)[C@H](N)[C@@H]2O)C[C@@H]2O[C@](O)(C[C@@H](O)C[C@@H](O)[C@H](O)CC[C@@H](O)C[C@@H](O)CC(=O)O[C@H]1C)C[C@H](O)[C@H]2C(=O)O [AMPHOTERICIN B]
MIC (Candida albicans): 0.5 µg/mL (≈ 0.541 µM)
MIC (Trichophyton rubrum): 1 µg/mL (≈ 1.08 µM)
MIC [1]: 4 µg/mL (≈ 4.33 µM)
MIC (Aspergillus fumigatus): 8 µg/mL (≈ 8.66 µM)

C=C1CCC[C@H]2[C@](C)(Cc3cc(O)ccc3O)[C@@H](C)CC[C@@]12C [ARENAROL]
IC50 (K562): 3.4 µM
IC50 (A549): 3.7 µM
MIC (Staphylococcus aureus): 4 µg/mL (≈ 12.7 µM)
MIC (Bacillus subtilis): 4 µg/mL (≈ 12.7 µM)
MIC (Kocuria rhizophila): 4 µg/mL (≈ 12.7 µM)
MIC (Salmonella enterica): 4 µg/mL (≈ 12.7 µM)
MIC (Proteus hauseri): 2 µg/mL (≈ 6.36 µM)
MIC (Escherichia coli): > 128 µg/mL
MIC (Candida albicans): 4 µg/mL (≈ 12.7 µM)
MIC (Trichophyton rubrum): 4 µg/mL (≈ 12.7 µM)
MIC [1]: 8 µg/mL (≈ 25.4 µM)
MIC (Aspergillus fumigatus): > 128 µg/mL
IC50 (Sortase A): > 407 µM
IC50 [2]: 11.4 µM

C=C1CCC[C@@]23C4=C(C[C@]2(C)[C@@H](C)CC[C@@]13C)C(=O)C(OC)=CC4=O
IC50 (K562): 0.7 µM
IC50 (A549): 3.3 µM
MIC (Staphylococcus aureus): > 128 µg/mL
MIC (Bacillus subtilis): 16 µg/mL (≈ 47 µM)
MIC (Kocuria rhizophila): 8 µg/mL (≈ 23.5 µM)
MIC (Salmonella enterica): 16 µg/mL (≈ 47 µM)
MIC (Proteus hauseri): 16 µg/mL (≈ 47 µM)
MIC (Escherichia coli): > 128 µg/mL
MIC (Candida albicans): > 128 µg/mL
MIC (Trichophyton rubrum): > 128 µg/mL
MIC [1]: > 128 µg/mL
MIC (Aspergillus fumigatus): > 128 µg/mL
IC50 [3]: > 128 µg/mL
IC50 [2]: > 376 µM
